Results published in patent US20140206534A1, “FORMULATION” (SYNGENTA LIMITED, priority 2011, published 2014).

Assays:
[1] = Visual release rate test of Bitrex in water; format: physicochemical; details: after 15 minutes; 0.4 mg agitated in 10 ml water
Method: 0.4 mg of sample was agitated in 10 ml of water and observed over 8 hours.

[2] = UV/Vis release rate measurement of Bitrex in water; format: physicochemical; details: 100 mg in 40 ml water, shaken
Method: 2 ml of the mixture was removed at each time interval for analysis.

visual observation of dissolution [1]: fully dissolved | % release of Bitrex relative to the total content ([2]; 5 minutes): 99.6% | % release of Bitrex relative to the total content ([2]; 15 minutes): 99.8%
SMILES: CC[N+](CC)(CC(=O)Nc1c(C)cccc1C)Cc1ccccc1 [Uncoated Bitrex, Denatonium benzoate]
